The target of one data set is sRI-sT complex (Enterobacteria phage T4, UniProt P06808+P13304). The experiment in a line: biochemical. Type of data set: binding.
The data set “crystal structure” deals with the molecule itself. Nature of the data set: crystal structure.

Sequence of sRI-sT complex (P06808 56-218, one chain of several): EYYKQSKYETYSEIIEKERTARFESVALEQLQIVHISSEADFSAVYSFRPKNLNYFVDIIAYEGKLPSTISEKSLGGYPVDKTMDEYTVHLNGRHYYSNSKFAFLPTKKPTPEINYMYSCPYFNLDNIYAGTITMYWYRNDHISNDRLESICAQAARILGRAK

In general, Kd refers to the free concentration of one partner at which half of the binding sites on the other are occupied at equilibrium, for simple one-to-one binding. A higher Kd goes with weaker binding. With `Nc1nc2c(ncn2[C@@H]2O[C@H](CO)[C@@H](O)[C@H]2O)c(=O)[nH]1` [guanosine], the Kd on sRI-sT complex came to 43 µM. That is a double-digit micromolar value.

B1: periplasmic/soluble domain of the antiholin RI (sRI), residues 25-97, with C-terminal histidine tag (domain or fragment, T4 phage, UniProt P13304 25-97, looked up)
chain: NVDPHFDKFMESGIRHVYMLFENKSVESSEQFYSFMRTTYKNDPCSSDFECIERGAEMAQSYARIMNIKLETE
modifications: disulfide bond between Cys69 and Cys75
One may read the stoichiometry N as the number of molecules, sites or subunits per partner or assembly. For the molecule B1, the “stoichiometry N” value in “crystal structure” turned out to be 4.
